Target: T1, hTRESK (TWIK-related spinal cord K+ channel, K2P18.1) (Homo sapiens, UniProt Q7Z418)
T1 construct: gene KCNK18; homodimeric hTRESK WT expressed in Xenopus laevis oocytes
T1 sequence (Q7Z418 1-384): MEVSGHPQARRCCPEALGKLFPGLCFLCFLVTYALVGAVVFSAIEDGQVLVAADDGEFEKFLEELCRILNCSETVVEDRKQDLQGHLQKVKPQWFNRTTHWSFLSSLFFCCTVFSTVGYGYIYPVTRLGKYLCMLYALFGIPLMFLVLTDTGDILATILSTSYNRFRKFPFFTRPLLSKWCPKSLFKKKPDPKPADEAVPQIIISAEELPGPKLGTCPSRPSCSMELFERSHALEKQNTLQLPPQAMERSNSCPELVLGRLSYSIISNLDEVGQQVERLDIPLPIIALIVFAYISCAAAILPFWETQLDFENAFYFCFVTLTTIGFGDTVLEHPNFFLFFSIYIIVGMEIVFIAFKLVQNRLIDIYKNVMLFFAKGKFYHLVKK
Experiment: TEVC dose-response in Xenopus oocytes, supported by alanine scan
Type: cell-based

Oc1ccc(Cl)c2cccnc12 [clx, 5-chloro-8-hydroxyquinoline]
EC50: 64 ± 11 µM

— PMC10354012, “Cloxyquin activates hTRESK by allosteric modulation of the selectivity filter” (Communications Biology, 2023)
